Data as given in US11371097B2, “Articles for diagnosis of liver fibrosis” (THE GOVERNMENT OF THE UNITED STATES, as represented by THE …, priority 2015, dated 2022).
Values joined by “and” are separate entries in the source; they are usually repeats but may differ in a detail not shown here. Equal entries are not always repeated. Where two headings read alike, the source gives them in different places.

Columns and labels:
liver = assay type: in vivo, Male Sprague-Dawley rats
Procedure: All chemical compounds were diluted in corn oil (CAS No. 8001-30-7) (MP Biomedicals, LLC (Solon, Ohio)). The dose volume was 5 mL/kg. Doses were selected based on doses published in the DrugMatrix database, the National Toxicology Program reports, and ATSDR reports.
(§1) In vivo rat experiments were performed at Integrated Laboratory Systems (ILS, Research Triangle Park, NC). ILS's Institutional Animal Care and Use Committee approved all experimental procedures. Research was conducted in compliance with the Animal Welfare Act, and other Federal statutes and regulations relating to animals and experiments involving animals and adheres to principles stated in the “Guide for Care and Use of Laboratory Animals” as prepared by the Committee on Care and Use of Laboratory Animals of the Institute of Laboratory Animal Resources, National Research Council in facilities that are fully accredited by the Association for Assessment and Accreditation of Laboratory Animal Care, International. Male Sprague-Dawley rats (CD IGS [CRL:CD (SD)]) were purchased from Charles River Laboratories (Stone Ridge, N.Y.). Rats weighing 215-245 g (8 weeks old) were used. Briefly, rats were housed two per cage with a rat tunnel enrichment device (Bio-Serve, Frenchtown, N.J.). Rats were fed a Purina Rodent Diet No. 5002 (Ralston Purina Co., St. Louis, Mo.), supplied ad libitum. Animals received reverse osmosis-treated tap water (City of Durham, N.C.) ad libitum, which was changed at least once weekly. Controls in the animal rooms were set to maintain temperatures between 20-In vivo rat experiments were performed at Integrated Laboratory Systems (ILS, Research Triangle Park, NC). ILS's Institutional Animal Care and Use Committee approved all experimental procedures. Research was conducted in compliance with the Animal Welfare Act, and other Federal statutes and regulations relating to animals and experiments involving animals and adheres to principles stated in the “Guide for Care and Use of Laboratory Animals” as prepared by the Committee on Care and Use of Laboratory Animals of the Institute of Laboratory Animal Resources, National Research Council in facilities that are fully accredited by the Association for Assessment and Accreditation of Laboratory Animal Care, International. Male Sprague-Dawley rats (CD IGS [CRL:CD (SD)]) were purchased from Charles River Laboratories (Stone Ridge, N.Y.). Rats weighing 215-245 g (8 weeks old) were used. Briefly, rats were housed two per cage with a rat tunnel enrichment device (Bio-Serve, Frenchtown, N.J.). Rats were fed a Purina Rodent Diet No. 5002 (Ralston Purina Co., St. Louis, Mo.), supplied ad libitum. Animals received reverse osmosis-treated tap water (City of Durham, N.C.) ad libitum, which was changed at least once weekly. Controls in the animal rooms were set to maintain temperatures between 20-25° C. with a relative humidity of 30-70% and a 12-hour light/12-hour dark cycle, lights on at 6:00 AM. Clinically healthy animals were assigned to dose groups using a procedure that stratifies animals across groups by body weight such that mean body weight of each group was not statistically different from any other group using analysis of variance (Statistical Analysis System version 9.2, SAS Institute, Cary, N.C.). Animals were dosed by oral gavage for five consecutive days (+10 minutes from the previous day's dose administration time). Volume was based upon daily body weight.
Animals were observed cageside one hour following daily dose administration, then 1-2 times per day during dosing regimens. Body weights were measured daily prior to dose administration, and prior to euthanasia. Twenty-four hours after the final dose administration, animals were anesthetized with isoflurane then euthanized by exsanguination followed by decapitation. Livers were harvested at necropsy and weighed to within 0.1 g. One half of the left lobe of the liver was fixed in 10% formalin. […]

[1] = assay type: in vivo, Male Sprague-Dawley rats
Procedure: as §1
Animals were observed cageside one hour following daily dose administration, then 1-2 times per day during dosing regimens. Body weights were measured daily prior to dose administration, and prior to euthanasia. Twenty-four hours after the final dose administration, animals were anesthetized with isoflurane then euthanized by exsanguination followed by decapitation. Livers were harvested at necropsy and weighed to within 0.1 g. One half of the left lobe of the liver was fixed in 10% formalin. The remaining half of the left lobe of the liver was flash frozen in liquid nitrogen, then stored below −70° C. Liver specimens were frozen in less than three minutes from time of death.

[2] = system: 67 genes on the fibrosis gene panel; assay: Multiplexed fibrosis gene panel (QuantiGene 2.0 Plex / Bioplex) on liver RNA
[3] = histopathology score, individual animals, Carbon Tetrachloride 200, Bromobenzene 785, Dexamethasone 1 mg/kg
[4] = liver RNA, individual animals, Carbon Tetrachloride 200, Bromobenzene 785, Dexamethasone 1 mg/kg
[5] = liver, relative to the other pathologies
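Throughout, for Cytoplasmic Alteration: Severity grades from None 0% through Minimal Mild Moderate to Marked over 80% tissue affected.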
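Throughout, for Inflammation: Severity grades from None 0% through Minimal Mild Moderate to Marked over 80% tissue affected.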
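Throughout, for vacuolation: Severity grades from None 0% through Minimal Mild Moderate to Marked over 80% tissue affected.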

## Brc1ccccc1 [bromobenzene]
liver; across dose groups, five days (figure legend)
  Combined histopathological scores as percent of animals with pathology: dose-dependent increase in severe pathology
liver; any dose
  Histopathological evidence of bile duct hyperplasia or fibrosis: did not cause histopathological evidence of bile duct hyperplasia or fibrosis at any dose
liver; exposures on the gene panel (FIG. 9 legend)
  Histopathological evidence of vacuolation and/or glycogen accumulation: correlated with histopathological evidence of vacuolation and/or glyocgen accumulation
liver; highest dose
  Vacuolation: varying degrees of vacuolation in all experimental animals
liver; [3]
  Bile Duct Hyperplasia and Fibroplasia: 0
  Cytoplasmic Alteration: 1 (2×) and 2 and 3
  Inflammation: 1 (3×) and 2
  Vacuolation: 2 and 3 (2×) and 1
[1]; dose groups
  Body weight gain over the five experimental dosing days: decrease in body weight gain
[1]; highest dose(s)
  Body weight change over the five-day exposure interval: resulted in body weight loss over the study interval
[2]; liver
  Pcolce expression levels compared with fibrogenic compounds: anti-correlated with corresponding gene expression levels induced by 4,4′-methylenedianiline and allyl alcohol
[2]; [4]
  Differential Expression of A2m: −4.054 and −4.444 and −2.844 and −1.670
  Differential Expression of Angptl3: −0.864 and −1.104 and −0.499 and −0.518
  Differential Expression of Anxa2: 1.771 and 1.226 and 1.391 and 0.783
  Differential Expression of Apoc: −0.325 and −0.372 and −0.172 and −0.338
  Differential Expression of Arf6: 0.324 and 0.475 and 0.461 and 0.239
  Differential Expression of Arpc1b: −0.171 and −0.454 and −0.337 and −0.315
  Differential Expression of Arrb1: −1.220 and −1.482 and −0.627 and −2.254
  Differential Expression of C1qb: −0.465 and −0.014 and 0.309 and 0.018
  Differential Expression of CD9: −0.072 and −0.052 and 0.416 and 0.476
  Differential Expression of CD53: −0.045 and −0.339 and 0.303 and −0.440
  Differential Expression of CP: −1.055 and −0.969 and −0.530 and −1.250
  Differential Expression of Capg: −0.835 and −0.762 and 0.053 and −1.140
  Differential Expression of Ccl2: −0.790 and −1.244 and −1.328 and −1.622
  Differential Expression of Col1a1: −0.659 and −0.336 and 0.149 and −0.231
  Differential Expression of Col1a2: −0.901 and −0.686 and −0.378 and −0.731
  Differential Expression of Col4a1: −0.512 and −0.387 and −0.163 and −0.340
  Differential Expression of Col5a2: −0.708 and −0.778 and −0.542 and −0.877
  Differential Expression of Ctgf: −1.387 and −1.037 and −0.649 and −0.389
  Differential Expression of Cxcl1: −0.610 and −0.492 and −0.386 and −0.930
  Differential Expression of Cxcl12: −2.564 and −2.540 and −1.640 and −2.717
  Differential Expression of Cxcl16: −0.140 and −1.150 and −0.275 and −0.468
  Differential Expression of Cyba: −0.761 and −0.590 and 0.049 and −0.752
  Differential Expression of Cyp2c11: −7.760 and −8.696 and −7.411 and −6.882
  Differential Expression of Dsc2: 0.800 and 0.827 and 0.610 and 0.624
  Differential Expression of Fam102b: −0.808 and −0.338 and −0.148 and −0.780
  Differential Expression of Fam105a: −0.461 and −0.047 and 0.188 and −0.207
  Differential Expression of Fbn1: −1.303 and −1.090 and −0.632 and −1.013
  Differential Expression of Fn1: −1.880 and −1.522 and −1.313 and −1.481
  Differential Expression of Fstl1: −1.078 and −0.899 and −0.423 and −1.140
  Differential Expression of Fxyd5: −0.189 and −0.159 and 0.283 and −0.184
  Differential Expression of Gpnmb: 1.906 and 1.987 and 2.373 and 1.454
  Differential Expression of Igfals: −2.524 and −2.336 and −2.083 and −3.007
  Differential Expression of Igfbp1: 3.275 and 3.897 and 0.758 and 3.616
  Differential Expression of Igfbp2: 0.339 and 0.249 and −0.180 and 0.559
  Differential Expression of Igfbp3: −2.127 and −1.911 and −1.316 and −1.713
  Differential Expression of Itga1: −0.672 and −0.525 and 0.257 and −0.880
  Differential Expression of Itgb2: −0.722 and −0.914 and −0.301 and −1.032
  Differential Expression of Lame2: −0.725 and −1.692 and −0.854 and −1.188
  Differential Expression of Lbp: 0.157 and 0.036 and 0.207 and −0.066
  Differential Expression of Len2: −0.682 and −0.719 and −0.661 and −1.007
  Differential Expression of Lgals1: −0.856 and −0.388 and −0.455 and −0.084
  Differential Expression of Lgals3: 1.367 and 0.936 and 1.432 and 0.867
  Differential Expression of Lgals3bp: −0.415 and −0.105 and 0.126 and −0.427
  Differential Expression of Lox: −1.197 and −1.023 and −0.699 and −0.615
  Differential Expression of Lrp1: −1.297 and −1.003 and −0.323 and −1.011
  Differential Expression of Lum: −0.152 and −0.296 and −0.116 and −0.530
  Differential Expression of Mmp2: −0.086 and 0.177 and 0.235 and −0.151
  Differential Expression of Nid1: −0.460 and −0.132 and 0.014 and −0.579
  Differential Expression of Pcolce: −1.230 and −0.974 and −0.145 and −1.087
  Differential Expression of Pkm2: −0.142 and −0.085 and 0.069 and −0.110
  Differential Expression of Plat: 0.202 and 0.005 and 0.027 and 0.084
  Differential Expression of Plau: −1.049 and −0.402 and −0.470 and −1.553
  Differential Expression of Plod2: −0.446 and −0.410 and −0.613 and −0.623
  Differential Expression of RT1-DMa: −0.569 and −0.589 and 0.149 and −0.606
  Differential Expression of RT1-Da: −0.205 and −0.563 and 0.533 and −0.554
  Differential Expression of S100A6: −0.521 and 0.005 and −0.682 and 0.207
  Differential Expression of S100A11: −0.356 and −0.292 and 0.061 and −0.441
  Differential Expression of Serpine1: 0.153 and 0.825 and −0.550 and 0.552
  Differential Expression of Serping1: −1.107 and −0.925 and −0.627 and −0.678
  Differential Expression of Slc25a24: −0.143 and 0.149 and 0.189 and −0.325
  Differential Expression of Sod2: 0.200 and −0.035 and 0.134 and 0.187
  Differential Expression of TagIn2: −0.669 and −0.625 and 0.147 and −0.816
  Differential Expression of Tgfb1: −0.596 and −0.528 and −0.330 and −0.639
  Differential Expression of Timp1: −0.428 and −0.191 and −0.231 and −0.056
  Differential Expression of Vhl: 0.043 and −0.096 and −0.334 and −0.363
  Differential Expression of Vim: −0.148 and −0.045 and −0.109 and −0.327
  Differential Expression of Vtn: −1.353 and −1.261 and −0.746 and −0.854
[2]; liver, 67-gene panel, 1.5-fold threshold
  Panel genes downregulated (and upregulated in fibrogenic chemical-dose groups): 12 genes
[2]; [5]
  A2m expression: downregulated
  Lcn2 expression: downregulated
  Pcolce expression: downregulated
